According to US20060234922A1, “Remedy for corneal failure” (priority 2002, published 2006):

Experiments:
Format in all cases: cell-based
[1] = system: cultured rabbit trigeminal nerve cells; assay: Effect of Octreotide on axon extension of cultured rabbit trigeminal nerve cells (anti-neurofilament 200 immunostaining, image analysis); details: Octreotide 10 μM final concentration, 24 hr culture
Text: Effect of Octreotide on Axon Extension of Cultured Rabbit Trigeminal Nerve Cells (In Vitro Test)
(§1) Japanese White Rabbits (2-3 days old) purchased from Fukusaki Rabbit Warren were used.
Octreotide (SMS 201-995, American Peptide Company, Inc.) was used.
The cell culture: Trigeminal nerve cells were isolated by reference to the report of Chan et al. (Kuan Y. Chan and Richard H. Haschke. Exp. Eye Res. 41: 687-699, 1985). To be specific, under ether anesthesia, after cardiac perfusion of rabbit with saline, the trigeminal ganglia was removed, and dispersed in nerve dispersion solution (SUMITOMO BAKELITE Co., Ltd.). The cells were counted and innoculated in an 8 well culture slide (BECTON DICKINSON) coated with polylysine. The cell number was about 3×10^3 cells per well, and the culture conditions were 5% CO2, 95% air, 37° C. […] Immunostaining: At 24 hr from culture, the cells were fixed with 4% paraformaldehyde at room temperature for 2 hr, and nerve cell, axon and dendrite were fluorescence stained with anti-neurofilament 200 antibody (NF, Anti-Neurofilament 200, Sigma) specifically recognizing a neurofilament constituting the nerve cell and neurite. The images of the stained cells were imported into a computer from the fluorescence microscope, and the effect of Octreotide on the neurite formation and axon extension was evaluated using an image analysis soft (MacSCOP, MITANI CO.). […]

[2] = system: cultured rabbit trigeminal nerve cells; assay: Effect of somatostatin receptor agonist on axon extension of cultured rabbit trigeminal nerve cells (neurofilament absorbance at 492 nm, fluorescence microscopy); details: 48 hr culture; for absorbance indicating the neurofilament amount of the cells (492 nm): control group 0.798, n=3
Text: Effect of Somatostatin Receptor Agonist on Axon Extension of Cultured Rabbit Trigeminal Nerve Cell (In Vitro Test)
Japanese White Rabbits (2-3 days old) purchased from KITAYAMA LABES Co., Ltd. were used.
As a somatostatin receptor agonist, which is a test substance, t-butyl 6-amino-2-(3-(1H-indol-3-yl)-2-((4-(2-oxo-2,3-dihydrobenzoimidazol-1-yl)piperidine-1-carbonyl)amino)propionylamino)hexanoate, which is an SSTR2 specific agonist (hereinafter to be referred to as compound 1), and 1-(3-(N-(5-bromopyridin-2-yl)-N-(3,4-dichlorobenzyl)amino)propyl)-3-(3-(1H-imidazol-4-yl)propyl)thiourea (hereinafter to be referred to as compound 2), which is an SSTR4 specific agonist, were used. The compound 1 was a compound of Example 4 and synthesized according to the method of Example 2 of JP-A-2001-519812 (WO98/44922). The compound 2 was synthesized according Example 15 of JP-A-2001-525793 (WO97/43278).
Rabbit trigeminal nerve cells were isolated by reference to the report of Chan et al. (Kuan Y. Chan and Richard H. Haschke. Exp. Eye Res. 41: 687-699, 1985). To be specific, under ether anesthesia, cardiac perfusion with saline was performed and trigeminal ganglia was removed. Using nerve dispersion solution (SUMITOMO BAKELITE Co., Ltd.), trigeminal ganglia was dispersed to prepare trigeminal nerve cells. For cell culture, Neurobasal medium (GIBCO) added with B27 Supplement (GIBCO; final concentration 2% v/v) and L-Glutamine (GIBCO; final concentration 1 mM) was used under the culture conditions of 5% CO2, 95% air, 100% humidity, 37° C., 48 hr. […]
After the completion of 48 hr culture, the cells innoculated on a 96 well plate were fixed with 4% paraformaldehyde and the neurofilament of the cell was labeled with anti-neurofilament 200 antibody (Sigma) specifically recognizing a neurofilament constituting nerve cell body and neurite and HRP conjugated goat anti-mouse IgG antibody (Wako Pure Chemical Industries, Ltd.). […] After the completion of coloring, the absorbance at 492 nm was measured and the measured value was taken as the amount of the stained neurofilament and used as an index for neuritogenesis (Taniwaki T., et al. Dev. Brain Res. (1995) 88, 109-166). The cells plated on an 8 well culture slide were fixed with 4% paraformaldehyde, a sample fixed with an anti-neurofilament 200 antibody (Sigma) was stained, and fluorescence labeled with Alexa Fluor 568 conjugated secondary antibody (Molecular probes). The fluorescence labeled cells were observed under a fluorescence microscope and the cell images were imported into a computer.

[3] = system: cultured rabbit trigeminal nerve cells; assay: Nerve axon extension promoting action in cultured rabbit trigeminal nerve cells (phase contrast microscopy); details: NGF 1 μg/mL final concentration, 48 hr culture, compared to non-addition group
Experimental: Nerve Axon Extension Promoting Action in Cultured Rabbit Trigeminal Nerve Cells (In Vitro Experiment)
as §1
As a test substance, somatostatin (manufactured by CALBIOCHEM, Lot B33795) and NGF (NGF-7S, manufactured by Sigma) were used. The test substance was dissolved in phosphate buffer (PBS) to 100 μM somatostatin, 20 μg/mL NGF-7S. The prepared reagents were preserved at −80° C. and dissolved before use.
The trigeminal nerve cell was isolated according to the report of Chan et al. (Kuan Y. Chan and Richard H. Haschke. Exp. Eye Res. 41: 687-699, 1985). To be specific, under ether anesthesia, after cardiac perfusion of rabbit with saline, the trigeminal ganglia was removed, trigeminal ganglia was dispersed using a nerve dispersion solution (SUMITOMO BAKELITE Co., Ltd.), and the cells were plated in a 24-well plate (SUMITOMO BAKELITE Co., Ltd.) coated with polylysine/laminin. The number of cells was about 3000 cells per well and the culture conditions were 5% CO2, 95% air at 37° C. […]
The effect on the formation of neurite and the axon extension from trigeminal nerve cell by somatostatin and NGF were morphologically evaluated by the observation using a phase contrast microscope.

C[C@@H](O)[C@@H]1NC(=O)[C@H](CCCCN)NC(=O)[C@@H](Cc2c[nH]c3ccccc23)NC(=O)[C@H](Cc2ccccc2)NC(=O)[C@@H](NC(=O)[C@H](N)Cc2ccccc2)CSSC[C@@H](C(=O)N[C@H](CO)[C@@H](C)O)NC1=O [Octreotide]
neuritogenic cells compared to the control cell group (fluorescence microscopic images) [1]: neuritogenic cells increased
proportion (%) of neuritogenic cell to the total cell number ([1]; control group about 21%, n=3, p<0.05): about 43%

CC(C)(C)OC(=O)C(CCCCN)NC(=O)C(Cc1c[nH]c2ccccc12)NC(=O)N1CCC(n2c(=O)[nH]c3ccccc32)CC1 (stereo not shown) [compound 1, t-butyl 6-amino-2-(3-(1H-indol-3-yl)-2-((4-(2-oxo-2,3-dihydrobenzoimidazol-1-yl)piperidine-1-carbonyl)amino)propionylamino)hexanoate]
neuritogenic cells compared with the control group (fluorescence microscopic images) ([2]; final concentration 1 μM): increase in the neuritogenic cells
absorbance indicating the neurofilament amount of the cells (492 nm) ([2]; final concentration 1 μM): 0.876

S=C(NCCCc1c[nH]cn1)NCCCN(Cc1ccc(Cl)c(Cl)c1)c1ccc(Br)cn1 [compound 2, 1-(3-(N-(5-bromopyridin-2-yl)-N-(3,4-dichlorobenzyl)amino)propyl)-3-(3-(1H-imidazol-4-yl)propyl)thiourea]
neuritogenic cells compared with the control group (fluorescence microscopic images) ([2]; final concentration 0.1 μM): increase in the neuritogenic cells
absorbance indicating the neurofilament amount of the cells (492 nm) ([2]; final concentration 0.1 μM): 0.850

B1: NGF: nerve growth factor (NGF-7S, manufactured by Sigma) (protein, UniProt P01139 122-241, looked up)
Beta-nerve growth factor: SSTHPVFHMGEFSVCDSVSVWVGDKTTATDIKGKEVTVLAEVNINNSVFRQYFFETKCRASNPVESGCRGIDSKHWNSYCTTTHTFVKALTTDEKQAAWRFIRIDTACVCVLSRKATRRG
modifications: 7S complex
formation of neurite and axon extension from trigeminal nerve cell, morphological evaluation [3]: clear nerve cell axon extension-promoting action was observed
